Here are results for five compounds from patent US20080242713A1, “Novel 5-cyano-prostacyclin derivatives as agents for the treatment of autoimmune diseases” (priority 2007, published 2008).

Experiment [1] concerns the target T1, EP4 receptor (Homo sapiens, UniProt P35408). Briefly: cAMP accumulation assay in cells expressing EP4 (Biological Example 1, diol derivative). The class given is cell-based. The following applies: for RLU - background: cAMP luminescence, mean of triplicate. How it is done: (§1) Commercial cAMP accumulation assays are typically competitive immunoassays in which free cAMP from cell lysates competes for antibody binding against a “labeled” cAMP molecule. This positive signal is generated in direct proportion to the amount of free cAMP. In our assays cAMP standards and samples are pipetted into the wells of a microplate. An antibody specific cAMP is added to the wells. A substrate is added to the wells and luminescence develops in proportion to the amount of cAMP which accumulated during treatment of cells which express the EP4 receptor with standards and samples. The intensity of the luminescence is measured in a luminometer.
The response of the EP4 expressing cells treated with the diol derivative is compared to Nileprost. Results shown are the mean of triplicate determinations.
For orientation: Cyclic AMP is a second messenger, typically raised through Gs and lowered through Gi signalling.

Experiment [2] concerns the target T1, EP4 receptor. The experiment in a line: cAMP accumulation assay in cells expressing EP4 (Biological Example 2, tetrazole derivatives). The class given is cell-based. To be noted: cAMP luminescence, mean of triplicate. The protocol:
as §1
Results shown are the mean of triplicate determinations.

T1 sequence (P35408 whole entry): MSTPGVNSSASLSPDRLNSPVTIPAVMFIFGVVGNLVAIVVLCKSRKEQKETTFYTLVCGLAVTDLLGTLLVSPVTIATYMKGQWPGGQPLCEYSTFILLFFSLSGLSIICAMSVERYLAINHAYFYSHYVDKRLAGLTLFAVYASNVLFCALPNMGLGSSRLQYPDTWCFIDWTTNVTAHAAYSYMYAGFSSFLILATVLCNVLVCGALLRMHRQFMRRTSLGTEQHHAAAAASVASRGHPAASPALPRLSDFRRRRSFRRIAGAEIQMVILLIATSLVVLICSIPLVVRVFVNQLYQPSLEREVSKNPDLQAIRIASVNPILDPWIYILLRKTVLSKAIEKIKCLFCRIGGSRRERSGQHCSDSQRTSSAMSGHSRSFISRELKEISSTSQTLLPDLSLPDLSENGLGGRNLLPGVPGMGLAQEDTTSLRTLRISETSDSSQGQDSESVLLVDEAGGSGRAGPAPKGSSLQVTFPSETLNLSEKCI

`CCCCC(C)[C@H](O)/C=C/[C@@H]1[C@H]2C/C(=C(\C#N)CCCC(O)CO)O[C@H]2C[C@H]1O` (stereo partly drawn) [Cpd. #5, 2-[(3aR,4R,5R,6aS)-hexahydro-5-hydroxy-4-[(1E,3S)-3-hydroxy-4-methyl-1-octenyl]-2H-cyclopenta[b]furan-2-ylidene]-6,7-dihydroxy-, (2E)-heptanenitrile]: the RLU - background worked out at 0 RLU in experiment [1] (compound 0.010 nM); 0 RLU in experiment [1] (compound 0.152 nM); 0 RLU in experiment [1] (compound 0.457 nM); 152432 RLU in experiment [1] (compound 1.372 nM); 532234 RLU in experiment [1] (compound 4.115 nM); 912060 RLU in experiment [1] (compound 12.346 nM). For the same compound, the RLU - background is reported as 1019082 RLU in experiment [1] (compound 37.037 nM); 1150386 RLU in experiment [1] (compound 111.111 nM); 1291820 RLU in experiment [1] (compound 333.333 nM); 1260692 RLU in experiment [1] (compound 1000.000 nM); 1201852 RLU in experiment [1] (compound 3000.000 nM); 1206470 RLU in experiment [1] (compound 9000.000 nM). Further, the “EP4 agonist activity in the cAMP accumulation assay” value in experiment [1] (result in words) is on record as “dose-responsively showed EP4 agonist activity”.

With `CCCCC(C)[C@H](O)/C=C/[C@@H]1[C@H]2C/C(=C(\C#N)CCCc3nnn[nH]3)O[C@H]2C[C@H]1O` (stereo partly drawn) [Cpd. #1, α-[(3aR,4R,5R,6aS)-hexahydro-5-hydroxy-4-[(1E,3S)-3-hydroxy-4-methyl-1-octenyl]-2H-cyclopenta[b]furan-2-ylidene]-1H-tetrazole-5-2E-pentanenitrile], the RLU - background came to 53600.00 RLU in experiment [2] (compound 0.005 nM); 17642.67 RLU in experiment [2] (compound 0.052 nM); 22533.33 RLU in experiment [2] (compound 0.157 nM); 27365.33 RLU in experiment [2] (compound 0.472 nM); 157357.33 RLU in experiment [2] (compound 1.417 nM); 373856.00 RLU in experiment [2] (compound 4.252 nM). The RLU - background was 435810.67 RLU in experiment [2] (compound 12.757 nM); 484954.67 RLU in experiment [2] (compound 38.272 nM); 514858.67 RLU in experiment [2] (compound 114.815 nM); 606992.00 RLU in experiment [2] (compound 344.444 nM); 584826.67 RLU in experiment [2] (compound 1033.333 nM); 559813.33 RLU in experiment [2] (compound 3100.000 nM).

As to `CCCCC(C)[C@@H](O)/C=C/[C@@H]1[C@H]2C/C(=C(/C#N)CCCc3nnn[nH]3)O[C@H]2C[C@H]1O` (stereo partly drawn) [Cpd. #3, α-[(3a R,4R,5R,6aS)-hexahydro-5-hydroxy-4-[(1E,3R)-3-hydroxy-4-methyl-1-octenyl]-2H-cyclopenta[b]furan-2-ylidene]-1H-tetrazole-5-2Z-pentanenitrile], the RLU - background was 76373.33 RLU in experiment [2] (compound 0.005 nM); 79997.33 RLU in experiment [2] (compound 0.052 nM); 83616.00 RLU in experiment [2] (compound 0.157 nM); 118397.33 RLU in experiment [2] (compound 0.472 nM); 273778.67 RLU in experiment [2] (compound 1.417 nM); 374920.00 RLU in experiment [2] (compound 4.252 nM). In addition, the RLU - background in experiment [2] (compound 12.757 nM) came out at 522154.67 RLU; in experiment [2] (compound 38.272 nM) it was 697208.00 RLU; in experiment [2] (compound 114.815 nM) it was 773429.33 RLU; in experiment [2] (compound 344.444 nM), 813525.33 RLU; in experiment [2] (compound 1033.333 nM), 710053.33 RLU; in experiment [2] (compound 3100.000 nM), 714320.00 RLU.

In the case of `CCCCC(C)C(O)C=CC1C(O)CC2OC(=C(C#N)CCCC(=O)O)CC21` (stereo not shown) [Nileprost, 5-cyano-16-methylprostacyclin, reference compound], the RLU - background was 0 RLU in experiment [1] (compound 0.010 nM); 850786 RLU in experiment [1] (compound 0.152 nM); 1291900 RLU in experiment [1] (compound 0.457 nM); 1521826 RLU in experiment [1] (compound 1.372 nM); 1626762 RLU in experiment [1] (compound 4.115 nM); 1589698 RLU in experiment [1] (compound 12.346 nM). For the same compound, the RLU - background in experiment [1] (compound 37.037 nM) is on record as 1312998 RLU; in experiment [1] (compound 111.111 nM) it was 1258626 RLU; in experiment [1] (compound 333.333 nM), 1648306 RLU; in experiment [1] (compound 1000.000 nM), 1635488 RLU; in experiment [1] (compound 3000.000 nM), 1625442 RLU; in experiment [1] (compound 9000.000 nM), 1599712 RLU.

Regarding `CCCCC[C@H](O)/C=C/[C@@H]1[C@H]2CC(=C(C#N)CCCc3nnn[nH]3)O[C@H]2C[C@H]1O` [Cpd. #4, α-[(3aR,4R,5R,6aS)-hexahydro-5-hydroxy-4-[(1E,3S)-3-hydroxy-1-octenyl]-2H-cyclopenta[b]furan-2-ylidene]-1H-tetrazole-5-pentanenitrile], the RLU - background in experiment [2] (compound 0.005 nM) stood at 146597.33 RLU; in experiment [2] (compound 0.052 nM), 83650.67 RLU; in experiment [2] (compound 0.157 nM), 40557.33 RLU; in experiment [2] (compound 0.472 nM) it was 46426.67 RLU; in experiment [2] (compound 1.417 nM), 82445.33 RLU; in experiment [2] (compound 4.252 nM), 158224.00 RLU. The RLU - background is given as 429672.00 RLU in experiment [2] (compound 12.757 nM); 554328.00 RLU in experiment [2] (compound 38.272 nM); 813194.67 RLU in experiment [2] (compound 114.815 nM); 909808.00 RLU in experiment [2] (compound 344.444 nM); 808477.33 RLU in experiment [2] (compound 1033.333 nM); 820866.67 RLU in experiment [2] (compound 3100.000 nM).
